From patent US6534524B1, “Indazole compounds and pharmaceutical compositions for inhibiting protein kinases, and methods for their use” (Agouron Pharmaceuticals, Inc., priority 1999, dated 2003)
Where two headings read alike, the source gives them in different places.

System: human umbilical vein endothelial cells (HUVEC)
Test: HUVEC proliferation assay (VEGF-stimulated, MTT);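 for % inhibition of the proliferation of HUVEC: relative to VEGF-stimulated control minus starvation-medium baseline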
Format: cell-based
Details: for % inhibition of the proliferation of HUVEC / % inhibition: crude reaction mixtures; for % inhibition: Library III, HUVEC proliferation, nominal concentration of 0.5 nM; for IC50: Homo sapiens, HUVEC
[1] = Library II, Y=S, 0.5 mM (column head; text: nominal 0.5 nM)
[2] = Library II, Y=S, 2 mM (column head; text: nominal 2 nM)
[3] = Library I, Y = CO, nominal concentration of 10 nM
[4] = Library I, Y = NH, nominal concentration of 10 nM
[5] = Library I, Y = O, nominal concentration of 10 nM
[6] = + albumin, read-out: HUVEC + albumin IC50

Row | Structure (SMILES) | % inhibition of the proliferation of HUVEC [1] [%] | % inhibition of the proliferation of HUVEC [2] [%] | % inhibition [%] | also measured
1 | Cc1ccccc1CNC(=O)c1ccccc1Sc1ccc2c(/C=C/c3ccccn3)n[nH]c2c1 | 24 | 99 | – | –
2 | CCOC(=O)CNC(=O)c1ccccc1Sc1ccc2c(/C=C/c3ccccn3)n[nH]c2c1 | – | – | −16 | –
3 | O=C(NCCc1ccc(F)cc1)c1ccccc1Sc1ccc2c(/C=C/c3ccccn3)n[nH]c2c1 | – | – | 3 | –
4 | O=C(NCCCO)c1ccc2c(-c3nc4ccccc4[nH]3)n[nH]c2c1 | – | – | – | % inhibition of the proliferation of HUVEC [3]: 5%; % inhibition of the proliferation of HUVEC [4]: 16%; % inhibition of the proliferation of HUVEC [5]: 25%
5 | O=C(NCCSCCO)c1ccccc1Sc1ccc2c(/C=C/c3ccccn3)n[nH]c2c1 | – | – | −31 | –
6 | O=C(Nc1ccc2[nH]ncc2c1)c1ccc2c(-c3nc4ccccc4[nH]3)n[nH]c2c1 | – | – | – | % inhibition of the proliferation of HUVEC [3]: 28%; % inhibition of the proliferation of HUVEC [4]: −1%; % inhibition of the proliferation of HUVEC [5]: 80%
7 | O=C(Nc1ccc(C2CCCCC2)cc1)c1ccccc1Sc1ccc2c(/C=C/c3ccccn3)n[nH]c2c1 | – | – | 1 | –
8 | O=C(Nc1ccc2[nH]c(=O)[nH]c2c1)c1ccc2c(-c3nc4ccccc4[nH]3)n[nH]c2c1 [drawing 582] | – | – | – | % inhibition of the proliferation of HUVEC [3]: 42%; % inhibition of the proliferation of HUVEC [4]: 6%; % inhibition of the proliferation of HUVEC [5]: 13%
9 | O=C(Nc1ccc2[nH]ncc2c1)c1ccccc1Sc1ccc2c(/C=C/c3ccccn3)n[nH]c2c1 | – | – | 22 | –
10 | O=C(Nc1ncnc2[nH]cnc12)c1ccccc1Sc1ccc2c(/C=C/c3ccccn3)n[nH]c2c1 | – | – | 18 | –
11 | CC(C)(C)c1nnc(NC(=O)c2ccccc2Sc2ccc3c(/C=C/c4ccccn4)n[nH]c3c2)s1 | – | – | −28 | –
12 | Cc1noc(NC(=O)c2ccccc2Sc2ccc3c(/C=C/c4ccccn4)n[nH]c3c2)c1C | 15 | 36 | – | –
13 | O=C(NN1CCCC1)c1ccccc1Sc1ccc2c(/C=C/c3ccccn3)n[nH]c2c1 | 17 | 23 | – | –
14 | CCOc1ccc(NC(=O)c2ccccc2Sc2ccc3c(/C=C/c4ccccn4)n[nH]c3c2)cc1 | – | – | 16 | –
15 | N#CCONC(=O)c1ccccc1Sc1ccc2c(/C=C/c3ccccn3)n[nH]c2c1 | 16 | 2 | – | –
16 | O=C(NCCc1ccccc1Cl)c1ccccc1Sc1ccc2c(/C=C/c3ccccn3)n[nH]c2c1 | – | – | 9 | –
17 | CC(C)(C)c1ccc(CNC(=O)c2ccccc2Sc2ccc3c(/C=C/c4ccccn4)n[nH]c3c2)cc1 | – | – | −1 | –
18 | COc1cc(CNC(=O)c2ccccc2Sc2ccc3c(/C=C/c4ccccn4)n[nH]c3c2)cc(OC)c1 | – | – | 37 | –
19 | CC1(C)CC(NC(=O)c2ccccc2Sc2ccc3c(/C=C/c4ccccn4)n[nH]c3c2)CC(C)(C)N1 | 35 | 10 | – | –
20 | O=C(Nc1ccc2[nH]ccc2c1)c1ccccc1Sc1ccc2c(/C=C/c3ccccn3)n[nH]c2c1 | – | – | 43 | –
21 | Cc1cccc(C)c1NC(=O)c1ccccc1Sc1ccc2c(/C=C/c3ccccn3)n[nH]c2c1 | – | – | −20 | –
22 | O=C(NCCC1OCCO1)c1ccccc1Sc1ccc2c(/C=C/c3ccccn3)n[nH]c2c1 | 38 | 68 | – | –

Row | Structure (SMILES) | % inhibition of the proliferation of HUVEC [1] [%] | % inhibition of the proliferation of HUVEC [2] [%] | % inhibition [%] | also measured
23 | O=C(Nc1ccc(CO)cc1)c1ccccc1Sc1ccc2c(/C=C/c3ccccn3)n[nH]c2c1 | – | – | −18 | –
24 | O=C(NCc1cccc(F)c1)c1ccccc1Sc1ccc2c(/C=C/c3ccccn3)n[nH]c2c1 [drawing 797] | 81 | 95 | – | –
25 | O=C(NC1CC1)c1ccc2c(-c3nc4ccccc4[nH]3)n[nH]c2c1 [drawing 587] | – | – | – | % inhibition of the proliferation of HUVEC [3]: 20%; % inhibition of the proliferation of HUVEC [4]: 0%; % inhibition of the proliferation of HUVEC [5]: 43%
26 | COC(=O)c1ccc(NC(=O)c2ccccc2Sc2ccc3c(/C=C/c4ccccn4)n[nH]c3c2)cc1 | – | – | −1 | –
27 | Nc1cccc(C(=O)c2ccc3c(/C=N/n4cccc4)n[nH]c3c2)c1 [Example 44] | – | – | – | IC50 (read-out: HUVEC IC50): > 700 nM
28 | O=C(Nc1cccc2c(O)cccc12)c1ccccc1Sc1ccc2c(/C=C/c3ccccn3)n[nH]c2c1 | – | – | 4 | –
29 | O=C(Nc1ccccc1)c1ccc2c(-c3nc4ccccc4[nH]3)n[nH]c2c1 | – | – | – | % inhibition of the proliferation of HUVEC [3]: 3%; % inhibition of the proliferation of HUVEC [4]: 16%; % inhibition of the proliferation of HUVEC [5]: 24%
30 | CS(=O)(=O)NNC(=O)c1ccccc1Sc1ccc2c(/C=C/c3ccccn3)n[nH]c2c1 | 9 | 1 | – | –
31 | CCCCOc1ccc(NC(=O)c2ccccc2Sc2ccc3c(/C=C/c4ccccn4)n[nH]c3c2)cc1 | – | – | −6 | –
32 | O=C(NCc1ccc(F)cc1)c1ccccc1Sc1ccc2c(/C=C/c3ccccn3)n[nH]c2c1 | – | – | 57 | –
33 | Cc1cccc2sc(NC(=O)c3ccccc3Sc3ccc4c(/C=C/c5ccccn5)n[nH]c4c3)nc12 | – | – | −13 | –
34 | O=C(NC(CO)CO)c1ccccc1Sc1ccc2c(/C=C/c3ccccn3)n[nH]c2c1 | 48 | 8 | – | –
35 | O=C(c1ccc2c(-c3nc4ccccc4[nH]3)n[nH]c2c1)N1CCCC1 | – | – | – | % inhibition of the proliferation of HUVEC [3]: 8%; % inhibition of the proliferation of HUVEC [4]: 0%; % inhibition of the proliferation of HUVEC [5]: 23%
36 | O=C(Nc1ccccc1-n1cccc1)c1ccccc1Sc1ccc2c(/C=C/c3ccccn3)n[nH]c2c1 | – | – | −7 | –
37 | CN(C)CC(C)(C)CNC(=O)c1ccccc1Sc1ccc2c(/C=C/c3ccccn3)n[nH]c2c1 | 38 | 5 | – | –
38 | CCn1nccc1NC(=O)c1ccccc1Sc1ccc2c(/C=C/c3ccccn3)n[nH]c2c1 | 26 | 2 | – | –
39 | CSCCC(CO)NC(=O)c1ccccc1Sc1ccc2c(C=Cc3ccccn3)n[nH]c2c1 (stereo not drawn) | – | – | −11 | –
40 | Nc1nc(NC(=O)c2ccccc2Sc2ccc3c(/C=C/c4ccccn4)n[nH]c3c2)n[nH]1 | −6 | 41 | – | –
41 | O=C(Nc1nc[nH]c1[N+](=O)[O-])c1ccccc1Sc1ccc2c(/C=C/c3ccccn3)n[nH]c2c1 | – | – | 7 | –
42 | O=C(NCCCO)c1ccccc1Sc1ccc2c(/C=C/c3ccccn3)n[nH]c2c1 | 24 | 31 | – | –
43 | CC(=O)Nc1cc(C(=O)c2ccc3c(/C=C/c4ccccn4)n[nH]c3c2)c(C)cc1C [Example 41(nn), 6-(5-Acetamido-2,4-dimethylbenzoyl)-3-E-[2-(pyridin-2-yl)ethenyl]-1H-indazole] | – | – | – | IC50 [6]: > 100 nM
44 | COc1ccc(NC(=O)c2ccccc2Sc2ccc3c(/C=C/c4ccccn4)n[nH]c3c2)cc1Cl | – | – | 2 | –

Row | Structure (SMILES) | % inhibition of the proliferation of HUVEC [1] [%] | % inhibition of the proliferation of HUVEC [2] [%] | % inhibition [%] | also measured
45 | O=C(Nc1c(F)cccc1F)c1ccccc1Sc1ccc2c(/C=C/c3ccccn3)n[nH]c2c1 | – | – | −31 | –
46 | Cc1ccc2nc(NC(=O)c3ccccc3Sc3ccc4c(/C=C/c5ccccn5)n[nH]c4c3)sc2c1 | – | – | −9 | –
47 | O=C(Nc1ccccc1F)c1ccccc1Sc1ccc2c(/C=C/c3ccccn3)n[nH]c2c1 | – | – | 17 | –
48 | COc1cccc(CNC(=O)c2ccccc2Sc2ccc3c(/C=C/c4ccccn4)n[nH]c3c2)c1OC | – | – | 10 | –
49 | COC(CCCNC(=O)c1ccccc1Sc1ccc2c(/C=C/c3ccccn3)n[nH]c2c1)OC | – | – | 9 | –
50 | O=C(NCS(=O)(=O)O)c1ccccc1Sc1ccc2c(/C=C/c3ccccn3)n[nH]c2c1 | 2 | −3 | – | –
51 | O=C(O)CCNC(=O)c1ccccc1Sc1ccc2c(/C=C/c3ccccn3)n[nH]c2c1 | 4 | 20 | – | –
52 | CCCCC(CC)NC(=O)c1ccccc1Sc1ccc2c(/C=C/c3ccccn3)n[nH]c2c1 (stereo not drawn) | 31 | 30 | – | –
53 | CCc1ccnc(NC(=O)c2ccccc2Sc2ccc3c(/C=C/c4ccccn4)n[nH]c3c2)c1 | – | – | 20 | –
54 | Cc1ccc(CNC(=O)c2ccccc2Sc2ccc3c(/C=C/c4ccccn4)n[nH]c3c2)o1 [drawing 763] | 56 | 96 | – | –
55 | O=C(NCCc1ccncc1)c1ccccc1Sc1ccc2c(/C=C/c3ccccn3)n[nH]c2c1 | 18 | 22 | – | –
56 | O=C(Nc1cccnc1)c1ccccc1Sc1ccc2c(/C=C/c3ccccn3)n[nH]c2c1 | – | – | −2 | –
57 | O=C(Nc1cccc(F)c1)c1ccccc1Sc1ccc2c(/C=C/c3ccccn3)n[nH]c2c1 | – | – | −11 | –
58 | CC(C)(C)CNC(=O)c1ccccc1Sc1ccc2c(/C=C/c3ccccn3)n[nH]c2c1 [drawing 728] | 19 | 24 | – | –
59 | CNCCNC(=O)c1ccccc1Sc1ccc2c(/C=C/c3ccccn3)n[nH]c2c1 [Example 35(gg), 6-[2-(2-(Methylamino)ethylcarbamoyl)phenylsulfanyl]-3-E-[2-(pyridin-2-yl)ethenyl]-1H-indazole] | – | – | – | IC50 [6]: > 100 nM
60 | COc1ccc(NC(=O)c2ccc3c(-c4nc5ccccc5[nH]4)n[nH]c3c2)cc1O [drawing 607] | 19 | 89 | – | –
61 | O=C(NCCc1ccccc1F)c1ccccc1Sc1ccc2c(/C=C/c3ccccn3)n[nH]c2c1 | – | – | 2 | –
62 | O=C(Nc1cc(Cl)nc(Cl)c1)c1ccccc1Sc1ccc2c(/C=C/c3ccccn3)n[nH]c2c1 | – | – | 0 | –
63 | O=C(Nc1cccnc1Cl)c1ccccc1Sc1ccc2c(/C=C/c3ccccn3)n[nH]c2c1 | – | – | 2 | –
64 | CC(C)(C)c1csc(NC(=O)c2ccccc2Sc2ccc3c(/C=C/c4ccccn4)n[nH]c3c2)n1 | – | – | −6 | –
65 | COc1cccc(NC(=O)c2ccccc2Sc2ccc3c(/C=C/c4ccccn4)n[nH]c3c2)c1 | – | – | 11 | –
66 | O=C(NCCN1CCCCC1)c1ccccc1Sc1ccc2c(/C=C/c3ccccn3)n[nH]c2c1 | 5 | 19 | – | –
